Measured values: paper PMC9926489, “Chemical Optimization of Selective Pseudomonas aeruginosa LasB Elastase Inhibitors and Their Impact on LasB-Mediated Activation of IL-1β in Cellular and Animal Infection Models” (ACS Infectious Diseases, 2023)

Legend:
[1] = tested on: IL-1β activation; test: IL-1β activation in P. aeruginosa-infected THP-1 macrophages (HEK IL-1R-lux reporter assay); assay type: cell-based, human; conditions: Homo sapiens; PAO1-infected THP-1 macrophages, IL-1 reporter assay; read-out: EC50, decrease in IL-1β activation
Experimental: Further to showing in vitro inhibition of LasB-mediated pro-IL-1β proteolysis, experiments were performed to determine the effect of compounds 12 and 16 on IL-1β activation and functionality in human macrophage cell cultures infected with P. aeruginosa PAO1, or an isogenic lasB deletion mutant thereof (ΔlasB). In these experiments, the levels of LasB activity in culture supernatants were measured via hydrolysis of the Sub115 fluorescent peptide, while the effect of LasB activity on IL-1β activation (functionality) was measured using a luciferase reporter cell line sensitive to IL-1β induction (Figure 3).
Human THP-1 macrophages were cultured by conventional methods then, pre-infection, culture media were replaced by RPMI lacking phenol red and antibiotics. […] After 2 h post-infection, 50 μL aliquots of supernatant were removed and used to quantitate both LasB activity and IL-1β functionality. To determine LasB activity, 50 μL of supernatant was added to Sub115 IL-1β peptide and hydrolysis of Sub115 was monitored spectrophotometrically with excitation at 355 nm and emission at 450 nm, as described above. Results were expressed as relative fluorescence units (RFU).
To determine IL-1β functionality, generation of an IL-1 signal was quantified by adding 50 μL of supernatant to HEK IL-1R-lux reporter cells cultured in RPMI supplemented with 5% heat-inactivated FBS, 200 μg/mL penicillin/streptomycin, 200 μg/mL hygromycin, 100 μg/mL zeomycin, and 0.5 μg/mL puromycin. No bacteria survived in this antibiotic condition; 18 h post-treatment, IL-1β-dependent luciferase induction was assayed by luminescence measured with D-luciferin substrate (Steady-Luc, Biotium) on a multimode reader (PerkinElmer) and expressed as relative luminescence units (RU), as previously described.[16]
In the first variation, experimental infections were performed with P. aeruginosa PAO1 and ΔlasB bacteria incubated with varying quantities of inhibitor at final concentrations ranging from 0.5 to 8 μM. […]

[2] = target: T1, purified LasB (Pseudomonas aeruginosa, UniProt P14756); test: Inhibition of LasB-mediated proteolysis of human serum IgG (SDS-PAGE); assay type: biochemical, P. aeruginosa; conditions: for inhibition of generation of 37 kDa IgG degradation product by LasB: at 10 μM inhibitor
T1 construct: The mature LasB protein is a 33 kDa metalloprotease, which is secreted from P. aeruginosa; host or cells: P. aeruginosa PAO1 (native secretion, culture supernatant)
T1 sequence (P14756 198-498): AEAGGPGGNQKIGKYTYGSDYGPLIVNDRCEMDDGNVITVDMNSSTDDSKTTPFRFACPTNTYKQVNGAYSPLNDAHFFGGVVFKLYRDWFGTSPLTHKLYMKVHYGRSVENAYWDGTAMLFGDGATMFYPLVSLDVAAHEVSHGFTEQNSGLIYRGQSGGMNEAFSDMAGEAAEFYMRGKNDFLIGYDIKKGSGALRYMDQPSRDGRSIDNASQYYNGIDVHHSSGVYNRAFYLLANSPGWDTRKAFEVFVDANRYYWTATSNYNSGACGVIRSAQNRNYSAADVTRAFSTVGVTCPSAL
Experimental: To confirm if compounds 12 and 16 were able to inhibit this activity, human serum IgG was incubated with purified LasB in the presence of varying concentrations of inhibitors and the products analyzed by SDS-PAGE.
This protocol was adapted from Cathcart et al.[25] Briefly, 10 μg of IgG from human serum (Sigma) were incubated with 100 ng purified LasB in assay buffer (50 mM Tris-HCl pH 7.4, 2.5 mM CaCl2) for 4 h at 37 °C, with or without variable concentrations of inhibitor. Samples were then denatured and analyzed by 4–15% gradient SDS polyacrylamide gel electrophoresis (SDS-PAGE) and the gel stained using Coomassie blue. The IgG subunits are visualized as two bands at 28 kDa (light chain) and 54 kDa (heavy chain). Proteolysis by LasB results in the generation of a fragment of the heavy chain detected of approximately 37 kDa. Bands were quantified using ImageJ software, and IC50 values were determined using Prism software (GraphPad).

[3] = target: MMP-9 (Homo sapiens, UniProt P14780); test: MMP-9 selectivity assay; assay type: biochemical; conditions: human MMP-9
Sequence of MMP-9 (P14780 94-707): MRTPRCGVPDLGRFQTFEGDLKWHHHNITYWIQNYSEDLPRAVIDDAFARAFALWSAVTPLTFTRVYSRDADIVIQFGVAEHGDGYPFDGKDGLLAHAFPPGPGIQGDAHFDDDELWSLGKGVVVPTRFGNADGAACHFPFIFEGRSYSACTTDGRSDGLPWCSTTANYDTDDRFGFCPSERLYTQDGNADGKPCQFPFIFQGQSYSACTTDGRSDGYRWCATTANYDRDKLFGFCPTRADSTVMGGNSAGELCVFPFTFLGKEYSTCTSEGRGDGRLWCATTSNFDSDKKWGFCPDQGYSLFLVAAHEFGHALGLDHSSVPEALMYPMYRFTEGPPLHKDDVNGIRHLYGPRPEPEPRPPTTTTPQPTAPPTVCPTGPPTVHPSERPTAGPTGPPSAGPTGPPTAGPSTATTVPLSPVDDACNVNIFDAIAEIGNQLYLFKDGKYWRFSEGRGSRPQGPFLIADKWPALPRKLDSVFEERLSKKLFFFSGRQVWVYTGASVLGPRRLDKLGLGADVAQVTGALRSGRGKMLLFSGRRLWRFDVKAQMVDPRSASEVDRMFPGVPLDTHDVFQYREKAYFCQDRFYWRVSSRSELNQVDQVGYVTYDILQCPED
Experimental: Selectivity of compound inhibition was evaluated against other proteases at concentrations between 0.4 and 200 μM. Activity against rabbit angiotensin-converting enzyme (ACE, Sigma) was assessed using 10 μM fluorogenic substrate Abz-Phe-Arg-Lys(Dnp)-P (Enzo Life Sciences) in 100 mM Tris-HCl pH 7, 50 mM NaCl, 10 μM Zn SO4. Activity against human matrix metalloproteases (MMP)-2 and MMP-9 was assessed in 50 mM HEPES pH 7.5, 10 mM CaCl2, 0.01% Triton X-100 using 4 μM fluorogenic substrate Mca-Pro-Leu-Gly-Leu-Dpa-Ala-Arg-NH2 (Enzo Life Sciences). Activity against MMP-1 and MMP-13 was assessed in 25 mM HEPES pH 7.5, 100 mM NaCl, 100 mM CaCl2, 0.0005% Brij using 7.5 μM fluorogenic substrate Mca-Lys-Pro-Leu-Gly-Leu-Dpa-Ala-Arg-NH2 (Sigma) for MMP-1 and 1.25 μM fluorogenic substrate Mca-Pro-Cha-Gly-Nva-His-Ala-Dpa-NH2 (Millipore) for MMP-13. Activity against human neutrophil elastase (HNE, Enzo Life Sciences) was assessed in 100 mM HEPES pH 7.5, 500 mM NaCl, 0.01% of Triton X-100 using 100 μM fluorogenic substrate MeOSuc-AAPV-AMC (Enzo Life Sciences).

[4] = Cytotoxicity screening (MTS), HepG2; assay type: cell-based; conditions: human, HepG2 cells
Experimental: Bronchial smooth muscle cells (BSMC, Lonza CC-2576), small airway epithelial cells (SAEC, Lonza CC-2547), or HepG2 cells (ATCC HB-8065) were seeded in 96-well plates at a density of 25,000 per well. Culture of these cells throughout the protocol utilized incubation at 37 °C, 5% CO2 in a humidified atmosphere, with BSMC and SAEC cells cultured in cell-specific media (Lonza) and HepG2 cells cultured in RPMI 1640 medium containing Glutamax (Gibco) and 10% fetal bovine serum. Plates containing BSMC cells were collagen coated to assist with cell adhesion. Following an overnight settling period, media was replaced with fresh media, with, or without, compound. Compound concentrations tested were 1, 3, 10, 30, and 100 μM, in duplicate. The cells were incubated with compound for 24 h. Control (1% DMSO) and positive standards terfenadine- and salmeterol-treated groups were included for both cell lines. […] The reaction was stopped with 12.5 μL of 10% SDS, plates briefly shaken, and absorbance (490 nm) read using a Spectramax M5e plate reader (Molecular Devices). Percentages of viable cells were calculated as: (test sample Abs 490 nM-mean blank Abs 490 nm)/(mean control Abs 490 nM-mean blank Abs 490 nm) × 100.

Which EC50 [1] does the source give for COc1cc2sc(CNC(=O)C3(CC(=O)O)Cc4ccccc4C3)nc2cc1OCCC[N+](C)(C)C [Compound 12] here?
Its EC50 is about 500 nM.

And the IC50 [2]?
The IC50 was 2590 nM.

And the “inhibition of generation of 37 kDa IgG degradation product by LasB” value [2]?
The value was “complete inhibition”.

And the IC50 [3]?
The IC50 was over 200000 nM.

What about the IC50 at 24 h [4] of the same compound?
The IC50 at 24 h was over 100000 nM.

With COc1cc2sc(CNC(=O)C3(CC(=O)O)Cc4cc(F)c(F)cc4C3)nc2cc1OCCC[N+](C)(CCO)CCO [Compound 16] as the compound, how does the EC50 [1] read?
Its EC50 is about 500 nM.

And the IC50 [2]?
Its IC50 is 1290 nM.

What about the “inhibition of generation of 37 kDa IgG degradation product by LasB” value [2] of the same compound?
Its value is “complete inhibition”.

What about the IC50 [3] of the same compound?
Its IC50 is over 200000 nM.

What about the IC50 at 24 h [4] of the same compound?
Its IC50 at 24 h is over 100000 nM.
